Results as given in patent US9346820B2, “HIV-1 protease inhibitors having gem-di-fluoro bicyclic P2-ligands” (priority 2013, dated 2016).

Assays:
HIV-1DRV^RP20 = assay: Antiviral activity against DRV-resistant variant, passage 20; format: cell-based; details: Human immunodeficiency virus 1, read-out: EC50 against HIV-1DRV^RP20
HIV-1NL4-3 = assay: In vitro selection of PI-resistant HIV-1 variants in MT-4 cells with sequencing of the protease-encoding region; format: cell-based
Source text: MT-4 cells ([…]) were exposed to HIV-1NL4-3 (500 TCID50) and cultured in the presence of various PIs at an initial concentration of its EC50 value. Viral replication was monitored by the determination of the amount of p24 Gag produced by MT-4 cells. The culture supernatants were harvested on day 7 and used to infect fresh MT-4 cells for the next round of culture in the presence of increasing concentrations of each drug. When the virus began to propagate in the presence of the drug, the drug concentration was increased generally 2- to 3-fold. Proviral DNA samples obtained from the lysates of infected cells were subjected to nucleotide sequencing. This drug selection procedure was carried out until the drug concentration reached 5 μM (31-33). In the experiments for selecting drug-resistant variants, MT-4 cells were exploited as target cells since HIV-1 in general replicates at greater levels in MT-4 cells than in MT-2 cells.
Molecular cloning and determination of the nucleotide sequences of HIV-1 strains passaged in the presence of anti-HIV-1 agents were performed as described previously (31). In brief, high molecular-weight DNA was extracted from HIV-1-infected MT-4 cells by using the InstaGene Matrix (Bio-Rad Laboratories, Hercules, Calif.) and was subjected to molecular cloning, followed by sequence determination. The primers used for the first round of PCR with the entire Gag- and protease-encoding regions of the HIV-1 genome were LTR F1 (5′-GATGCTACATATAAGCAGCTGC-3′; SEQ ID NO: 13) and PR12 (5′-CTCGTGACAAATTTCTACTAATGC-3′; SEQ ID NO: 14). The first-round PCR mixture consisted of 1 μl of proviral DNA solution, 10 μl of Premix Taq (Ex Taq Version; Takara Bio Inc., Otsu, Japan), and 10 pmol of each of the first PCR primers in a total volume of 20 μl. The PCR conditions used were an initial 3 min at 95° C., followed by 35 cycles of 40 sec at 95° C., 20 sec at 55° C., and 2 min at 72° C., with a final 10 min of extension at 72° C. The first-round PCR products (1 μl) were used directly in the second round of PCR with primers LTR F2 (5′-GAGACTCTGGTAACTAGAGATC-3′; SEQ ID NO: 15) and Ksma2.1 (5′-CCATCCCGGGCTTTAATTTTACTGGTAC-3′; SEQ ID NO: 16) under the PCR conditions of an initial 3 min at 95° C., followed by 35 cycles of 30 sec at 95° C., 20 sec at 55° C., and 2 min at 72° C., with a final 10 min of extension at 72° C. The second-round PCR products were purified with spin columns (MicroSpin S-400 HR columns; Amersham Biosciences Corp., Piscataway, N.J.), cloned directly, and subjected to sequencing with a model 3130 automated DNA sequencer (Applied Biosystems, Foster City, Calif.).

[1] = test system: variants selected with DRV over 10 and 20 passages; assay: Antiviral activity against DRV-resistant variants selected over 10 and 20 passages; format: cell-based, HIV-1; details: Human immunodeficiency virus 1, read-out: EC50 against variants selected with DRV over 10 and 20 passages
HIV-1ERS104pre = assay: Antiviral activity of brain-side medium from the BBB assay, p24 assay in PHA-PBMs; format: cell-based; details: PHA-activated PBMCs
Experimental: The “brain-side” of the medium containing a compound collected in the BBB in vitro assay, was subjected to antiviral assays. Two HIV-1 isolates were employed, HIV-1LAI (Panel A) and HIV-1ERS104pre (Panel B). […] Dilution ranges were between 10-fold and 10,000-fold, and the percentage of viral inhibition was used as an endpoint. […] Assays were conducted in duplicate and error bars show standard deviations.
The assay was carried out using 10, 100, 1000 and 10000 times-diluted brain-side stocks of compounds.

MT-2 cells = assay: Cytotoxicity (CC50), MTT assay; format: cell-based; details: human, 7 days
Experimental: The susceptibility of HIV-1LAI to various drugs was determined as previously described with minor modifications. Briefly, MT-2 cells (10^4/ml) were exposed to 100 50% tissue culture infectious doses (TCID50) of HIV-1LAI in the presence or absence of various concentrations of drugs in 96-well microculture plates and were incubated at 37° C. for 7 days. After 100 μl of the medium was removed from each well, 3-(4,5-dimetylthiazol-2-yl)-2,5-diphenyltetrazolium bromide (MTT) solution (10 μl, 7.5 mg/ml in phosphate-buffered saline) was added to each well in the plate, followed by incubation at 37° C. for 2 h. […] All assays were performed in duplicate or triplicate. […] In determining the drug susceptibility of certain laboratory HIV-1 strains, MT-4 cells were employed as target cells as previously described with minor modifications. In brief, MT-4 cells (10^5/ml) were exposed to 100 TCID50 of drug-resistant HIV-1 strains in the presence or absence of various concentrations of drugs and were incubated at 37° C. On day 7 of culture, the supernatants were harvested and the amounts of p24 Gag protein were determined by using a fully automated chemiluminescent enzyme immunoassay system (Lumipulse F: Fujirebio Inc., Tokyo). […] All assays were performed in duplicate or triplicate. PHA-PBMs were derived from a single donor in each independent experiment. Thus, for obtaining the data, three different donors were recruited.

| Structure (SMILES) | EC50 (HIV-1DRV^RP20) [nM] | concentration in the presence of which HIV-1NL4-3 had acquired an ability to replicate (HIV-1NL4-3; 25 passages, initial concentration 0.003 μM, MT-4 cells) [µM] | fold-increased concentration tolerated by selected virus (HIV-1NL4-3; 25 passages, relative to initial concentration 0.003 μM) [fold] | EC50 [1] [nM] | antiviral profile of brain-side preparations (FIG. 5B) (HIV-1ERS104pre) | amino acid substitutions in the protease-encoding region of selected HIV-1NL4-3 (HIV-1NL4-3; by passage 15) | concentration in the presence of which HIV-1NL4-3 attained an ability to replicate (HIV-1NL4-3; by passage 15, starting at 0.003 μM, MT-4 cells) [µM] | CC50 (MT-2 cells) [nM] |
| --- | --- | --- | --- | --- | --- | --- | --- | --- |
| CC(C)CN(C[C@@H](O)[C@H](Cc1ccccc1)NC(=O)O[C@H]1CO[C@H]2OCC[C@H]21)S(=O)(=O)c1ccc(N)cc1 [DRV, darunavir] | 174 | – | – | – | – | – | – | – |
| COc1ccc(S(=O)(=O)N(CC(C)C)C[C@@H](O)[C@H](Cc2ccccc2)NC(=O)OC2CO[C@H]3OCC(F)(F)[C@@H]23)cc1 (stereo partly shown) [GRL-04810] | – | 0.080 | 26 | 30 to 34 | virtually the same antiviral profiles | – | – | – |
| CC(C)CN(C[C@@H](O)[C@H](Cc1ccccc1)NC(=O)O[C@H]1CO[C@H]2OCC(F)(F)[C@H]21)S(=O)(=O)c1ccc(N)cc1 [GRL-05010] | – | – | – | 26 to 43 | virtually the same antiviral profiles | M46I and I50V by passage 15 in all 24 clones examined, while N38K was detected in 8 of 24 clones and M36I in 3 clones | 0.037 | 37000 |
